Experimental data reported in ChEMBL document CHEMBL1201862, “PubChem BioAssay data set” (2004).
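In this assay, cells in 96-well plates receive the compound at five concentrations for 48 hours. Endpoints are linearly interpolated between the surrounding concentrations. GI50: concentration for 50% inhibition of growth.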 Calls of active or inactive are those of the source. No stated cut-off is given here; in the data, active = GI50 up to about 1.1 µM and inactive = higher.

Assays:
Experiment in all cases: DTP human tumour cell line panel, 48 h
RPMI-8226 = system: RPMI-8226
Hs-578T = system: Hs-578T
KM12 = system: KM12
M14 = system: M14
NCI/ADR-RES = system: NCI/ADR-RES
EKVX = system: EKVX
SF-539 = system: SF-539
MOLT-4 = system: MOLT-4
NCI-H522 = system: NCI-H522
UACC-62 = system: UACC-62
SN12C = system: SN12C
MCF7 = system: MCF7
BT-549 = system: BT-549
NCI-H23 = system: NCI-H23
PC-3 = system: PC-3
HL-60 = system: HL-60
SK-MEL-5 = system: SK-MEL-5
SK-MEL-28 = system: SK-MEL-28
NCI-H460 = system: NCI-H460
OVCAR-4 = system: OVCAR-4
A498 = system: A498
IGROV-1 = system: IGROV-1
SF-268 = system: SF-268
ACHN = system: ACHN
OVCAR-5 = system: OVCAR-5
SK-MEL-2 = system: SK-MEL-2
MDA-MB-231 = system: MDA-MB-231
SNB-19 = system: SNB-19
SW-620 = system: SW-620
MDA-N = system: MDA-N
HOP-92 = system: HOP-92
CAKI-1 = system: CAKI-1
SNB-75 = system: SNB-75
HOP-62 = system: HOP-62
HCC 2998 = system: HCC 2998
HCT-15 = system: HCT-15
TK-10 = system: TK-10
OVCAR-8 = system: OVCAR-8
UO-31 = system: UO-31
LOX IMVI = system: LOX IMVI
DU-145 = system: DU-145
UACC-257 = system: UACC-257
U-251 = system: U-251
HCT-116 = system: HCT-116
786-0 = system: 786-0
OVCAR-3 = system: OVCAR-3
SF-295 = system: SF-295
T47D = system: T47D
HT-29 = system: HT-29
SR = system: SR
MDA-MB-435 = system: MDA-MB-435
COLO 205 = system: COLO 205
A549 = system: A549
Malme-3M = system: Malme-3M
SK-OV-3 = system: SK-OV-3
K562 = system: K562
RXF 393 = system: RXF 393
CCRF-CEM = system: CCRF-CEM
NCI-H226 = system: NCI-H226

N#Cc1c(Nc2nc3ccccc3s2)c2ccccc2n2c1nc1ccccc12
GI50 (RPMI-8226): > 100 µM (inactive)
GI50 (Hs-578T): 45.5 µM (inactive)
GI50 (KM12): > 100 µM (inactive)
GI50 (M14): > 100 µM (inactive)
GI50 (NCI/ADR-RES): 72.4 µM (inactive)
GI50 (EKVX): > 100 µM (inactive)
GI50 (SF-539): > 100 µM (inactive)
GI50 (MOLT-4): > 100 µM (inactive)
GI50 (NCI-H522): > 100 µM (inactive)
GI50 (UACC-62): > 100 µM (inactive)
GI50 (SN12C): > 100 µM (inactive)
GI50 (MCF7): > 100 µM (inactive)
GI50 (BT-549): > 100 µM (inactive)
GI50 (NCI-H23): > 100 µM (inactive)
GI50 (PC-3): > 100 µM (inactive)
GI50 (HL-60): > 100 µM (inactive)
GI50 (SK-MEL-5): > 100 µM (inactive)
GI50 (SK-MEL-28): > 100 µM (inactive)
GI50 (NCI-H460): > 100 µM (inactive)
GI50 (OVCAR-4): > 100 µM (inactive)
GI50 (A498): 89.5 µM (inactive)
GI50 (IGROV-1): > 100 µM (inactive)
GI50 (SF-268): > 100 µM (inactive)
GI50 (ACHN): 79.8 µM (inactive)
GI50 (OVCAR-5): > 100 µM (inactive)
GI50 (SK-MEL-2): > 100 µM (inactive)
GI50 (MDA-MB-231): 48.4 µM (inactive)
GI50 (SNB-19): > 100 µM (inactive)
GI50 (SW-620): > 100 µM (inactive)
GI50 (MDA-N): > 100 µM (inactive)
GI50 (HOP-92): > 100 µM (inactive)
GI50 (CAKI-1): > 100 µM (inactive)
GI50 (SNB-75): 24.5 µM (inactive)
GI50 (HOP-62): 27.1 µM (inactive)
GI50 (HCC 2998): > 100 µM (inactive)
GI50 (HCT-15): > 100 µM
GI50 (TK-10): > 100 µM (inactive)
GI50 (OVCAR-8): > 100 µM (inactive)
GI50 (UO-31): > 100 µM (inactive)
GI50 (LOX IMVI): > 100 µM (inactive)
GI50 (DU-145): > 100 µM (inactive)
GI50 (UACC-257): > 100 µM (inactive)
GI50 (U-251): 90.8 µM (inactive)
GI50 (HCT-116): > 100 µM (inactive)
GI50 (786-0): 29 µM (inactive)
GI50 (OVCAR-3): > 100 µM (inactive)
GI50 (SF-295): 82 µM (inactive)
GI50 (T47D): > 100 µM (inactive)
GI50 (HT-29): > 100 µM (inactive)
GI50 (SR): > 100 µM (inactive)
GI50 (MDA-MB-435): > 100 µM (inactive)
GI50 (COLO 205): > 100 µM (inactive)
GI50 (A549): > 100 µM (inactive)
GI50 (Malme-3M): > 100 µM (inactive)

Cc1ccc2nc(-c3ccccc3)cc(=O)n2c1
GI50 (RPMI-8226): > 100 µM (inactive)
GI50 (Hs-578T): > 100 µM (inactive)
GI50 (KM12): > 100 µM (inactive)
GI50 (M14): > 100 µM (inactive)
GI50 (NCI/ADR-RES): 69.7 µM (inactive)
GI50 (EKVX): 81.8 µM (inactive)
GI50 (SF-539): > 100 µM (inactive)
GI50 (SK-OV-3): > 100 µM (inactive)
GI50 (K562): > 100 µM (inactive)
GI50 (MOLT-4): > 100 µM (inactive)
GI50 (NCI-H522): > 100 µM (inactive)
GI50 (UACC-62): > 100 µM (inactive)
GI50 (SN12C): > 100 µM (inactive)
GI50 (MCF7): > 100 µM (inactive)
GI50 (BT-549): > 100 µM (inactive)
GI50 (NCI-H23): > 100 µM (inactive)
GI50 (PC-3): > 100 µM (inactive)
GI50 (RXF 393): > 100 µM (inactive)
GI50 (HL-60): > 100 µM (inactive)
GI50 (SK-MEL-5): > 100 µM (inactive)
GI50 (SK-MEL-28): > 100 µM (inactive)
GI50 (NCI-H460): > 100 µM (inactive)
GI50 (CCRF-CEM): > 100 µM (inactive)
GI50 (OVCAR-4): > 100 µM (inactive)
GI50 (IGROV-1): > 100 µM (inactive)
GI50 (SF-268): > 100 µM (inactive)
GI50 (ACHN): > 100 µM (inactive)
GI50 (OVCAR-5): > 100 µM (inactive)
GI50 (MDA-MB-231): > 100 µM (inactive)
GI50 (SNB-19): > 100 µM (inactive)
GI50 (SW-620): > 100 µM (inactive)
GI50 (MDA-N): > 100 µM (inactive)
GI50 (HOP-92): > 100 µM (inactive)
GI50 (NCI-H226): 64.6 µM (inactive)
GI50 (SNB-75): > 100 µM (inactive)
GI50 (HOP-62): > 100 µM (inactive)
GI50 (HCC 2998): > 100 µM (inactive)
GI50 (HCT-15): > 100 µM
GI50 (TK-10): > 100 µM (inactive)
GI50 (OVCAR-8): > 100 µM (inactive)
GI50 (DU-145): > 100 µM (inactive)
GI50 (UACC-257): > 10 µM (inactive)
GI50 (U-251): > 100 µM (inactive)
GI50 (HCT-116): > 100 µM (inactive)
GI50 (786-0): > 100 µM (inactive)
GI50 (OVCAR-3): > 100 µM (inactive)
GI50 (SF-295): > 100 µM (inactive)
GI50 (T47D): 38.6 µM (inactive)
GI50 (HT-29): > 100 µM (inactive)
GI50 (SR): > 100 µM (inactive)
GI50 (MDA-MB-435): > 100 µM (inactive)
GI50 (COLO 205): > 100 µM (inactive)
GI50 (A549): > 100 µM (inactive)
GI50 (Malme-3M): > 100 µM (inactive)

CN(Cc1cnc2nc(N)nc(N)c2n1)c1ccc(C(=O)NC(CCC(=O)NC(CC(P(=O)(O)O)P(=O)(O)O)C(=O)O)C(=O)O)cc1 (stereo not drawn)
GI50 (Hs-578T): > 100 µM (inactive)
GI50 (M14): > 100 µM (inactive)
GI50 (NCI/ADR-RES): > 100 µM (inactive)
GI50 (EKVX): > 100 µM (inactive)
GI50 (SK-OV-3): > 100 µM (inactive)
GI50 (MOLT-4): > 100 µM (inactive)
GI50 (NCI-H522): > 100 µM (inactive)
GI50 (UACC-62): > 100 µM (inactive)
GI50 (SN12C): > 100 µM (inactive)
GI50 (MCF7): > 100 µM (inactive)
GI50 (BT-549): > 100 µM (inactive)
GI50 (NCI-H23): > 100 µM (inactive)
GI50 (PC-3): > 100 µM (inactive)
GI50 (RXF 393): > 100 µM (inactive)
GI50 (SK-MEL-5): > 100 µM (inactive)
GI50 (SK-MEL-28): > 100 µM (inactive)
GI50 (NCI-H460): > 100 µM (inactive)
GI50 (OVCAR-4): > 100 µM (inactive)
GI50 (IGROV-1): > 100 µM (inactive)
GI50 (SF-268): > 100 µM (inactive)
GI50 (ACHN): > 100 µM (inactive)
GI50 (OVCAR-5): > 100 µM (inactive)
GI50 (SK-MEL-2): > 100 µM (inactive)
GI50 (MDA-MB-231): > 100 µM (inactive)
GI50 (SNB-19): > 100 µM (inactive)
GI50 (SW-620): > 100 µM (inactive)
GI50 (MDA-N): > 100 µM (inactive)
GI50 (HOP-92): > 100 µM (inactive)
GI50 (NCI-H226): > 100 µM (inactive)
GI50 (SNB-75): > 100 µM (inactive)
GI50 (HOP-62): > 100 µM (inactive)
GI50 (HCT-15): > 100 µM
GI50 (TK-10): > 100 µM (inactive)
GI50 (OVCAR-8): > 100 µM (inactive)
GI50 (UO-31): > 100 µM (inactive)
GI50 (LOX IMVI): > 100 µM (inactive)
GI50 (DU-145): > 100 µM (inactive)
GI50 (UACC-257): > 100 µM (inactive)
GI50 (U-251): > 100 µM (inactive)
GI50 (HCT-116): > 100 µM (inactive)
GI50 (786-0): > 100 µM (inactive)
GI50 (OVCAR-3): > 100 µM (inactive)
GI50 (SF-295): > 100 µM (inactive)
GI50 (T47D): > 100 µM (inactive)
GI50 (HT-29): > 100 µM (inactive)
GI50 (SR): > 100 µM (inactive)
GI50 (MDA-MB-435): > 100 µM (inactive)
GI50 (COLO 205): > 100 µM (inactive)
GI50 (A549): > 100 µM (inactive)
GI50 (Malme-3M): > 100 µM (inactive)
